From BindingDB's records for doi:10.1021/jm00044a016 (University of Paris, 1994)

target: Glutamyl aminopeptidase (Oryctolagus cuniculus); test: Inhibition of aminopeptidase A (APA)

Row | Compound | Ki [µM]
1 | NC(CS)CCCCC(=O)O (stereo not given) [6-Amino-7-mercapto-heptanoic acid] | 1.6
2 | N[C@H](CS)CCCS(=O)(=O)O [Sodium; (S)-4-amino-5-mercapto-pentane-1-sulfonate] | 0.37
3 | NC(CS)CCC(C(=O)O)C(=O)O (stereo not given) [2-(3-Amino-4-mercapto-butyl)-malonic acid] | 0.28
4 | NC(CS)CCCP(=O)(O)O (stereo not given) [(4-Amino-5-mercapto-pentyl)-phosphonic acid] | 0.51
5 | NC(CS)CC(C(=O)O)C(=O)O (stereo not given) [2-(2-Amino-3-mercapto-propyl)-malonic acid] | 3.5
